According to the NIST ThermoML archive (doi:10.1021/je9004382):
± gives the expanded uncertainty stated by the source.

Columns and labels:
[1] = Crystal; DTA
[2] = Molar enthalpy of transition or fusion; conditions: Crystal; Adiabatic calorimetry

Normal melting temperature [1] [°C]	Molar enthalpy of transition or fusion [2] [kcal/mol]	SMILES
137.56 ± 1.1	7.22 ± 0.43	COC(=O)C=Cc1ccc(O)cc1 [2-propenoic acid, 3-(4-hydroxyphenyl)-, methyl ester]
88.64 ± 1.2	7.14 ± 0.669	COC(=O)/C=C/c1cc(OC)c(O)c(OC)c1 [3,5-dimethoxy-4-hydroxy cinnamic acid methyl ester]
62.56 ± 0.95	6.17 ± 0.43	COC(=O)C=Cc1ccc(O)c(OC)c1 [methyl 3-(4-hydroxy-3-methoxyphenyl)-2-propenoate]
